Data reported in patent US7863308B2, “Substituted thiophenes” (Auspex Pharmaceuticals, Inc., priority 2007, dated 2011).

Tests used:
CYP2C9 = CYP2C9 (Homo sapiens, UniProt P11712); assay: In vitro inhibition of human cytochrome P450 enzymes: CYP2C9 (dibenzylfluorescein fluorometric assay)
Method: (§1) In Vitro Inhibition of Human Cytochrome P45 Enzymes
(§2) Solution A: NADPH-Regenerating System
(§3) To a glass tube on ice were added sequentially: Water (8 mL) in NADP+ (20 mg), glucose-6-phosphate (20 mg), magnesium chloride hexahydrate (13.3 mg) and glucose-6-phosphate dehydrogenase (60 units).
To a glass tube on ice were added sequentially: 0.5 M KH2PO4 (pH 7.4, 2.4 mL), water (8.988 mL), CYP2C9 (600 μL of 1 picomol/microliter), and dibenzylfluorescein (2 mM in 100% acetonitrile, 12 microliter).
(§4) Solution A was transferred to a 96-well black plate (80 microliter per well), followed by various concentrations of a solution of Compound in 10% acetonitrile-water (20 microliter per well). The reaction was initiated by adding 100 microliter of solution B to each well of the 96-well plate. The plate was incubated for 40 minutes at 37° C. in the dark. The reaction was stopped by adding 75 microliters of stop buffer (2 N NaOH) to each well, and incubating at 37° C. for 2 hours. The end point was measured in a fluorometer plate reader at λex=485 nm and λem=538 nm.

CYP3A4 = CYP3A4 (Homo sapiens, UniProt P08684); details: 10 min, pH 7.4
Method: as §1, §2, §3
To a glass tube on ice were added sequentially: 0.5 M KH2PO4 (pH 7.4, 9.6 mL), water (2.328 mL), CYP3A4 (60 μL of 1 picomol/microliter), and dibenzylfluorescein (2 mM in 100% acetonitrile, 12 microliter).
as §4, with “20%” for “10%”, “10” for “40”, “The reaction was stopped by adding 75 microliters of stop buffer (2 N NaOH) to each well, and incubating at 37° C. for 2 hours.” left out

Sequence of CYP2C9 (P11712 whole entry): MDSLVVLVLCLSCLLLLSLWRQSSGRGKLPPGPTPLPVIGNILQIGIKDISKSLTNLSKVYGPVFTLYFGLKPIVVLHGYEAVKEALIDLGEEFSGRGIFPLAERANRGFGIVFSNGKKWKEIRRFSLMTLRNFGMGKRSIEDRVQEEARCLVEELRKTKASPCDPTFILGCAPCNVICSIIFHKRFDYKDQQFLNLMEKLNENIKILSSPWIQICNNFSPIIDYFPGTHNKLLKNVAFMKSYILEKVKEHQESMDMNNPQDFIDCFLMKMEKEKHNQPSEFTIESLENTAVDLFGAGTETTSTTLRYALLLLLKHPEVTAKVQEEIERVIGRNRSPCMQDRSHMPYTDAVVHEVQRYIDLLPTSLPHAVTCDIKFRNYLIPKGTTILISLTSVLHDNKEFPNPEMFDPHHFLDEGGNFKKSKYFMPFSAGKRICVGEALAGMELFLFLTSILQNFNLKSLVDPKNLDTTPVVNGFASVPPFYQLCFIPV
Sequence of CYP3A4 (P08684 whole entry): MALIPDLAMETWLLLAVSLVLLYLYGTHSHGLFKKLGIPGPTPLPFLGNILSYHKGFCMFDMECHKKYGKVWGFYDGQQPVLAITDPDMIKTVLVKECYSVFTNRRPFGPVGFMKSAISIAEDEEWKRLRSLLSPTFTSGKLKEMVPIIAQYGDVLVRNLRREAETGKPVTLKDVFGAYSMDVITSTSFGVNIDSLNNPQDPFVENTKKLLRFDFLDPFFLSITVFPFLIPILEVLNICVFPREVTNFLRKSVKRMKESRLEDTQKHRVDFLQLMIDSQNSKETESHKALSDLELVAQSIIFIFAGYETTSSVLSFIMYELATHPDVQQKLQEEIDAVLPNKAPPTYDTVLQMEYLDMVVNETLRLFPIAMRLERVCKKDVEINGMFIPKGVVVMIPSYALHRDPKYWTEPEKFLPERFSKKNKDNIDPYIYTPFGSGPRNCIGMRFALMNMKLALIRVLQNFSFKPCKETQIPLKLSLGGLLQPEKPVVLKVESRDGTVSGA

IC50 (CYP2C9) [µM]	times the amount of deuterated compound to inhibit CYP3A4 as compared to the non-isotopically enriched drug (CYP3A4) [times]	times the amount of deuterated compound to inhibit CYP2C9 as compared to the non-isotopically enriched drug (CYP2C9; human, 40 min, pH 7.4) [times]	Structure (SMILES)
0.1	–	–	Cc1cc2c(cc1CC(=O)c1sccc1S(=O)(=O)Nc1onc(C)c1Cl)OCO2 [sixtaxsentan, 2-[2-(6-Methyl-benzo[1,3]dioxol-5-yl)-acetyl]-thiophene-3-sulfonic acid (4-chloro-3-methyl-isoxazol-5-yl)-amide, reference compound]
0.32	2.3	3.2	[2H]C1([2H])Oc2cc(C)c(CC(=O)c3sccc3S(=O)(=O)Nc3onc(C)c3Cl)cc2O1 [Example 2, d2-2-[2-(6-Methyl-benzo[1,3]dioxol-5-yl)-acetyl]-thiophene-3-sulfonic acid (4-chloro-3-methyl-isoxazol-5-yl)-amide]
